According to patent US4888287A, “Rapid differentiation of fungi from bacteria using polyene antibiotics” (Eastman Kodak Company, priority 1986, dated 1989):

Tests used:
C. albicans [1] = test: Inhibition of MTT tetrazolium salt reduction by C. albicans, microtitration plate (Example 3, Table IV); assay type: cell-based, Candida albicans (ATCC 14053); conditions: Candida albicans, 0.5 h, C. albicans (yeast), 540 nm, 37° C., 30 min, read-out: Corrected Percent Inhibition
Protocol: (§1) gram-negative microorganism Escherichia coli (ATCC 25922), gram-positive microorganism Staphylococcus aureus (ATCC 25923), and Candida albicans yeast cells (ATCC 14053), brain heart infusion broth (BHI) and Sabaroud's dextrose broth (SAB) from Difco Laboratories (Detroit, Michigan, U.S.A.), and Aspergillus flavus (ATCC 20047), a mold from American Type Culture Collection (Rockville, Maryland, U.S.A.).
(§2) E. coli and S. aureus were grown overnight in BHI broth at 37° C. C. albicans and A. flavus were grown overnight at 25° C. in SAB broth with agitation. The cells were harvested by centrifugation, washed and resuspended in 0.05 molar N-2-hydroxyethylpiperazine-N'-2-ethanesulfonic acid (HEPES) buffer (pH 7.8).
(§3) The differentiations of yeast and mold from bacteria were carried out in microtitration plates. The cell suspensions used were like those described in Example 2. The reducible compound used was 3-(4,5-dimethyl-2-thiazolyl)-2,5-diphenyl-2H-tetrazolium bromide (MTT). A composition containing MTT was prepared with the following components: 200 μl MTT solution (5 mg/ml methanol), 200 μl glucose solution (10% glucose in water), 200 μl trimethyl-1,4-benzoquinone ETA and 12 ml of HEPES buffer (0.05 molar, pH 7.8).
(§4) Test solutions were prepared using the following components: 50 μl HEPES buffer, 50 μl filipin polyene antibiotic (12.5 mg/ml dimethylsulfoxide)(serial dilutions of buffer and antibiotic solutions were performed to obtain various antibiotic concentrations), 50 μl of the appropriate cell suspension, i.e. E. coli (about 10^8 cells/ml), S. aureus (about 10^8 cells/ml), C. albicans (about 10^7 cells/ml) and A. flavus, and […] of the MTT composition noted above. Cell Controls contained all reagents except the antibiotic. Background was measured with buffer. Solution Controls contained all reagents except cells.
(§5) Optical density measurements were made at 540 nm using a commercially available spectrophotometer, and the change in optical density (ΔOD) was determined after 30 minutes at 37° C. […] It is apparent that the concentration effective for differentiation of yeast is different than for mold. However, it is well within the skill of a worker in the art to determine the appropriate concentration for a given test.

C. albicans [2] = test: Inhibition of RIND XXXV reduction by C. albicans, dry analytical element (Example 4, Table V); assay type: cell-based, Candida albicans (ATCC 14053); conditions: C. albicans (yeast), 37° C., 30 min
Protocol: as §1, §2
Dispersions containing RIND compounds were prepared by dissolving, for example, RIND VII from Table I above in N,N-dimethylformamide (DMF) at 16 mg compound per ml of solvent. An aliquot (250 μl) of the resulting solution was added to 500 μl of TRITON X-100 surfactant. […]
A standard paper punch was used to cut circular elements (about 0.6 cm in diameter) from the dried strips. […] Buffer solution was applied to separate elements for background readings.
Relative fluorescence (excitation at 540 nm and emission at 620 nm) was measured using a Dynatech MICROFLUOR reader at zero time and after 30 minutes incubation at 37° C., and the change in relative fluorescence was determined.

E. coli [3] = test: Inhibition of RIND XXXV reduction by E. coli, microtitration plate, fluorescence (Example 2, Table III); assay type: cell-based, Escherichia coli (ATCC 25922); conditions: Escherichia coli, 0.5 h, E. coli (gram -), 37° C., 30 min, read-out: Corrected Percent Inhibition
Protocol: as §1, §2
(§6) Dispersions containing RIND compounds were prepared by dissolving, for example, RIND VII from Table I above in N,N-dimethylformamide (DMF) at 16 mg compound per ml of solvent. An aliquot (250 μl) of the resulting solution was added to 500 μl of TRITON X-100 surfactant. This mixture was then added dropwise with stirring to 25 ml of 0.05 molar HEPES buffer. A solution containing a water-compatible RIND compound (for example, RIND XXXV) was prepared by dissolving the compound in N,N-dimethylformamide which had been acidified with 0.1% sulfuric acid (16 mg RIND compound per ml of solvent).
(§7) A composition was prepared from the following components: 100 μl RIND XXXV solution (16 mg RIND compound per ml of acidified N,N-dimethylformamide), 200 μl glucose solution (10% in water), 200 μl trimethyl-1,4-benzoquinone ETA solution (1.5 mg/ml methanol) and 10 ml HEPES buffer.
(§8) Test solutions were prepared using the following reagents: 50 μl HEPES buffer, 50 μl filipin polyene antibiotic (12.5 mg/ml dimethylsulfoxide)(serial dilutions of buffer and antibiotic solutions were performed to obtain various antibiotic concentrations), 50 μl of the appropriate cell suspensions, that is, E. coli (about 10^8 cells/ml), S. aureus (about 10^8 cells/ml), C. albicans (about 10^7 cells/ml) and A. flavus, and […] of the RIND composition described above.
(§9) Control solutions were prepared as described in Example 1. Relative fluorescence was measured using a Dynatech MICROFLUOR Reader (Dynatech Laboratories, Alexandria, Virginia) modified to read at excitation 540 nm and emission 620 nm, at zero time and after incubation at 37° C. for 30 minutes. The change in relative fluorescence was then determined as the difference of the two values.

E. coli [4] = test: Inhibition of MTT tetrazolium salt reduction by E. coli, microtitration plate (Example 3, Table IV); assay type: cell-based, Escherichia coli (ATCC 25922); conditions: Escherichia coli, 0.5 h, E. coli (gram -), 540 nm, 37° C., 30 min, read-out: Corrected Percent Inhibition
Protocol: as §1, §2, §3, §4, §5

A. flavus = test: Inhibition of RIND XXXV reduction by A. flavus (mold), microtitration plate, fluorescence (Example 2, Table III); assay type: cell-based, Aspergillus flavus (ATCC 20047); conditions: Aspergillus flavus, 0.5 h, 37° C., 30 min, read-out: Corrected Percent Inhibition
Protocol: as §1, §2, §6, §7, §8, §9

Structure (SMILES): CCCCC[C@@H](O)[C@H]1C(=O)O[C@H](C)[C@@H](O)/C=C/C=C/C=C/C=C/C=C(\C)[C@@H](O)C[C@H](O)C[C@H](O)C[C@H](O)C[C@H](O)C[C@H](O)C[C@@H]1O [Filipin, filipin]
- inhibition at 260 µg/mL (C. albicans [1]; 0.26 mg/ml): 10.3%
- inhibition at 520 µg/mL (C. albicans [1]; 0.52 mg/ml): 50%
- inhibition at 1040 µg/mL (C. albicans [1]; 1.04 mg/ml): 60.3%
- inhibition at 2080 µg/mL (C. albicans [1]; 2.08 mg/ml): 100%
- Corrected Percent Inhibition (C. albicans [2]): 76%
- inhibition at 260 µg/mL (E. coli [3]; 0.26 mg/ml): 0%
- inhibition at 520 µg/mL (E. coli [3]; 0.52 mg/ml): 0%
- inhibition at 1040 µg/mL (E. coli [3]; 1.04 mg/ml): 2%
- inhibition at 2080 µg/mL (E. coli [3]; 2.08 mg/ml): 17.6%
- inhibition at 260 µg/mL (E. coli [4]; 0.26 mg/ml): 0%
- inhibition at 520 µg/mL (E. coli [4]; 0.52 mg/ml): 0%
- inhibition at 1040 µg/mL (E. coli [4]; 1.04 mg/ml): 0%
- inhibition at 2080 µg/mL (E. coli [4]; 2.08 mg/ml): 0%
- inhibition at 260 µg/mL (A. flavus; 0.26 mg/ml): 31.9%
- inhibition at 520 µg/mL (A. flavus; 0.52 mg/ml): 42.5%
- inhibition at 1040 µg/mL (A. flavus; 1.04 mg/ml): 49.8%
- inhibition at 2080 µg/mL (A. flavus; 2.08 mg/ml): 64.9%
